These molecules were tested against T1, PDE5A1 (Homo sapiens, UniProt O76074) (assay: Inhibition of type 5 phosphodiesterase (PDE5) activity, modified SPA test with human platelet lysate). Conditions: 0.5 μM cGMP, read-out: PDE5A1 inhibitory values [measured as −log IC50 (mol/l)] (converted).
T1 construct: from tissue; host or cells: human platelets from fresh donor blood (10,000 x g supernatant of sonicated lysate)
Assay type: biochemical
How it was run: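 Enzyme source is lysate from human platelets (10,000 g supernatant). Compound preincubated 5 min at 37° C in Tris pH 7.4 containing 1 μM motapizone and 10 nM of a PDE2 inhibitor. Reaction started with 0.5 μM cGMP ([3H] tracer) and run 15 min; SPA read-out, IC50 by non-linear regression.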

| Structure (SMILES) | IC50 |
| --- | --- |
| CCC(=O)N1CCC(NC(=O)c2c(C)[nH]c3c(-c4cc(C)c(F)cc4OCC4CC4)ncnc23)CC1 [Example E120, 4-[2-(Cyclopropylmethoxy)-4-fluoro-5-methylphenyl]-6-methyl-N-(1-propanoylpiperidin-4-yl)-5H-pyrrolo[3,2-d]pyrimidine-7-carboxamide] | < 1 nM |
| COCC(=O)N1CCC(NC(=O)c2c(C)[nH]c3c(-c4cc(C)c(F)cc4OCC4CC4)ncnc23)CC1 [Example E121, 4-[2-(Cyclopropylmethoxy)-4-fluoro-5-methylphenyl]-N-[1-(methoxyacetyl)piperidin-4-yl]-6-methyl-5H-pyrrolo[3,2-d]pyrimidine-7-carboxamide] | < 1 nM |
| CC(=O)N[C@H]1CC[C@H](NC(=O)c2c(C)[nH]c3c(-c4cc(C)c(F)cc4OCC4CC4)ncnc23)CC1 [Example E122, N-[trans-4-(Acetylamino)cyclohexyl]-4-[2-(cyclopropylmethoxy)-4-fluoro-5-methylphenyl]-6-methyl-5H-pyrrolo[3,2-d]pyrimidine-7-carboxamide] | < 1 nM |
| CCC(=O)N[C@H]1CC[C@H](NC(=O)c2c(C)[nH]c3c(-c4cc(C)c(F)cc4OCC4CC4)ncnc23)CC1 [Example E123, 4-[2-(Cyclopropylmethoxy)-4-fluoro-5-methylphenyl]-6-methyl-N-[trans-4-(propanoylamino)cyclohexyl]-5H-pyrrolo[3,2-d]pyrimidine-7-carboxamide] | < 1 nM |
| COCC(=O)N[C@H]1CC[C@H](NC(=O)c2c(C)[nH]c3c(-c4cc(C)c(F)cc4OCC4CC4)ncnc23)CC1 [Example E124, 4-[2-(Cyclopropylmethoxy)-4-fluoro-5-methylphenyl]-N-{trans-4-[(methoxyacetyl)amino]cyclohexyl}-6-methyl-5H-pyrrolo[3,2-d]pyrimidine-7-carboxamide] | < 1 nM |
| CC(=O)N[C@H]1CC[C@@H](NC(=O)c2c(C)[nH]c3c(-c4cc(C)c(F)cc4OCC4CC4)ncnc23)CC1 [Example E125, N-[cis-4-(Acetylamino)cyclohexyl]-4-[2-(cyclopropylmethoxy)-4-fluoro-5-methylphenyl]-6-methyl-5H-pyrrolo[3,2-d]pyrimidine-7-carboxamide] | < 1 nM |
| CCC(=O)N[C@H]1CC[C@@H](NC(=O)c2c(C)[nH]c3c(-c4cc(C)c(F)cc4OCC4CC4)ncnc23)CC1 [Example E126, 4-[2-(Cyclopropylmethoxy)-4-fluoro-5-methylphenyl]-6-methyl-N-[cis-4-(propanoylamino)cyclohexyl]-5H-pyrrolo[3,2-d]pyrimidine-7-carboxamide] | < 1 nM |
| COCC(=O)N[C@H]1CC[C@@H](NC(=O)c2c(C)[nH]c3c(-c4cc(C)c(F)cc4OCC4CC4)ncnc23)CC1 [Example E127, 4-[2-(Cyclopropylmethoxy)-4-fluoro-5-methylphenyl]-N-{cis-4-[(methoxyacetyl)amino]cyclohexyl}-6-methyl-5H-pyrrolo[3,2-d]pyrimidine-7-carboxamide] | < 1 nM |
| COc1cc(OCC2CC2)c(-c2ncnc3c(C(=O)NC4CCN(C(C)=O)CC4)c(C)[nH]c23)cc1F [Example E131, N-(1-Acetylpiperidin-4-yl)-4-[2-(cyclopropylmethoxy)-5-fluoro-4-methoxyphenyl]-6-methyl-5H-pyrrolo[3,2-d]pyrimidine-7-carboxamide] | < 1 nM |
| CCC(=O)N1CCC(NC(=O)c2c(C)[nH]c3c(-c4cc(F)c(OC)cc4OCC4CC4)ncnc23)CC1 [Example E132, 4-[2-(Cyclopropylmethoxy)-5-fluoro-4-methoxyphenyl]-6-methyl-N-(1-propionylpiperidin-4-yl)-5H-pyrrolo[3,2-d]pyrimidine-7-carboxamide] | < 1 nM |
| COCC(=O)N1CCC(NC(=O)c2c(C)[nH]c3c(-c4cc(F)c(OC)cc4OCC4CC4)ncnc23)CC1 [Example E133, 4-[2-(Cyclopropylmethoxy)-5-fluoro-4-methoxyphenyl]-N-[1-(methoxyacetyl)piperidin-4-yl]-6-methyl-5H-pyrrolo[3,2-d]pyrimidine-7-carboxamide] | < 1 nM |

— US9376442B2, “Methylpyrrolopyrimidinecarboxamides” (Takeda GmbH, priority 2009, dated 2016)
